Results from US8133847B2, “Pyrido[2,3-B]pyrazine derivatives useful as herbicidal compounds” (Syngenta Limited, priority 2006, dated 2012).

Legend:
Assay type in all cases: in vivo
[1] = system: test plants (a variety of test species); test: Example B2 herbicidal action, post-emergence, pots in glasshouse; details: evaluated after 13 days, 100=total damage to plant, 0=no damage to plant
Experimental: (§1) Seeds of a variety of test species were sown in standard soil in pots. After 8 days cultivation (post-emergence) under controlled conditions in a glasshouse (at 24/16° C., day/night; 14 hours light; 65% humidity), the plants were sprayed with an aqueous spray solution derived from the formulation of the technical active ingredient in acetone/water (50:50) solution containing 0.5% Tween 20 (polyoxyethylene sorbitan monolaurate, CAS RN 9005-64-5). The test plants were then grown in a glasshouse under controlled conditions in a glasshouse (at 24/16° C., day/night; 14 hours light; 65% humidity) and watered twice daily. After 13 days, the test was evaluated (100=total damage to plant; 0=no damage to plant).

[2] = system: Amaranthus retroflexus (AMARE); test: Example B3 herbicidal action, post-emergence; details: 1000 g/ha, after 13 days, 100=total damage to plant, 0=no damage to plant
Experimental: (§2) Seeds of a variety of test species were sown in sterilised compost in small pots. After cultivation for seven days (post-emergence) in controlled conditions in the glasshouse (at 24/16° C., day/night; 14 hours light; 65% humidity) the plants were sprayed with 1 mg of the active ingredient, formulated in 2.5 ml acetone/water (50:50) solution, which is equivalent to 1000 g/ha. Once the foliage was dry, the pots were kept in the glasshouse (at 24/16° C., day/night; 14 hours light; 65% humidity), and were watered twice daily. After 13 days the test was evaluated (100=total damage to plant, 0=no damage to plant).

[3] = system: Chenopodium album (CHEAL); test: Example B3 herbicidal action, post-emergence; details: 1000 g/ha, after 13 days, 100=total damage to plant, 0=no damage to plant
Experimental: as §2

[4] = system: Alopecurus myosuroides (ALOMY); test: Example B3 herbicidal action, post-emergence; details: 1000 g/ha, after 13 days, 100=total damage to plant, 0=no damage to plant
Experimental: as §2

[5] = system: Digitaria sanguinalis (DIGSA); test: Example B3 herbicidal action, post-emergence; details: 1000 g/ha, after 13 days, 100=total damage to plant, 0=no damage to plant
Experimental: as §2

[6] = system: Amaranthus retroflexus (AMARE); test: Example B2 herbicidal action, post-emergence, pots in glasshouse; details: Application post-emergence, evaluated after 13 days (100=total damage to plant; 0=no damage to plant)
Experimental: as §1

Solanum nigrum (SOLNI) = test: as above; details: Application post-emergence, evaluated after 13 days
Experimental: as §1

Setaria faberi (SETFA) = test: as above; details: Application post-emergence, evaluated after 13 days (100=total damage to plant; 0=no damage to plant)
Experimental: as §1

[7] = system: Echinochloa crusgalli (ECHCG); test: as above; details: Application post-emergence, evaluated after 13 days (100=total damage to plant; 0=no damage to plant)
Experimental: as §1

[8] = system: Ipomea hederaceae (IPOHE); test: as above; details: Application post-emergence, evaluated after 13 days (100=total damage to plant; 0=no damage to plant)
Experimental: as §1

SMILES	damage to the test plants [1]	damage to plant, Amaranthus retroflexus (AMARE) [2]	damage to plant, Chenopodium album (CHEAL) [3]	damage to plant, Alopecurus myosuroides (ALOMY) [4]	damage to plant, Digitaria sanguinalis (DIGSA) [5]	damage to plant, Amaranthus retroflexus (AMARE) [6]	damage to plant, Solanum nigrum (SOLNI) (Solanum nigrum (SOLNI))	damage to plant, Setaria faberi (SETFA) (Setaria faberi (SETFA))	damage to plant, Echinochloa crusgalli (ECHCG) [7]	damage to plant, Ipomea hederaceae (IPOHE) [8]
O=c1[nH]c2nccnc2c(O)c1-c1ccccc1 [Compound A22]	no damage									
COc1cccc(-c2c(O)c3nccnc3[nH]c2=O)c1OC [Compound A41]		0	6	3	6					
O=c1[nH]c2nccnc2c(O)c1-c1ccc(C(F)(F)F)cc1Br [Compound A43]		7	8	0	0					
CC(C)(C)C(=O)Oc1c(-c2cc(F)c(Cl)cc2Cl)c(=O)[nH]c2nccnc12 [Compound B48]	no damage									
CC(C)(C)C(=O)Oc1c(-c2ccc(C(F)(F)F)cc2Br)c(=O)[nH]c2nccnc12 [Compound B54]		3	8	0	0					
CC(=O)Oc1c(-c2ccc(Cl)cc2Cl)c(=O)n(C(C)C)c2nccnc12 [Compound C7]		9	7	0	3					
CCn1c(=O)c(-c2c(Cl)ccc(Cl)c2Cl)c(OC(=O)C(C)C)c2nccnc21 [Compound C107]		10	10	0	2					
CCn1c(=O)c(-c2cccc(C(F)(F)F)c2Cl)c(OC(=O)C(C)(C)C)c2nccnc21 [Compound C132]		10	8	0	0					
Cn1c(=O)c(-c2ccccc2)c(OC(=O)C(C)(C)C)c2nccnc21 [Compound C137]	no damage					9	0	0	0	5
CCn1c(=O)c(-c2ccc(C(F)(F)F)cc2[N+](=O)[O-])c(OC(=O)C(C)(C)C)c2nccnc21 [Compound C141]		10	7	0	0					
CCn1c(=O)c(-c2cc(-c3ccc(Cl)cc3)ccc2C)c(OC(=O)C(C)C)c2nccnc21 [Compound C156]		0	0	8	3					
Cn1c(=O)c(-c2c(F)c([N+](=O)[O-])cc(F)c2Cl)c(OC(=O)C(C)(C)C)c2nccnc21 [Compound C157]		6	8	0	0					
CCn1c(=O)c(-c2c(F)c([N+](=O)[O-])cc(F)c2Cl)c(OC(=O)C(C)(C)C)c2nccnc21 [Compound C158]		9	10	0	0					
Cc1cccc([N+](=O)[O-])c1-c1c(OC(=O)C(C)(C)C)c2nccnc2n(C)c1=O [Compound C161]		6	2	0	5					
CCn1c(=O)c(-c2cc(OC(F)(F)F)ccc2OC)c(OC(=O)C(C)(C)C)c2nccnc21 [Compound C167]						10	9	2	5	5
Cn1c(=O)c(-c2ccccc2OC(F)F)c(OC(=O)C(C)(C)C)c2nccnc21 [Compound C168]						10	8	2	3	5
CCn1c(=O)c(-c2ccccc2OC(F)F)c(OC(=O)C(C)(C)C)c2nccnc21 [Compound C169]						9	9	0	0	7
Cc1cnc2c(OC(=O)C(C)(C)C)c(-c3c(F)ccc(F)c3Cl)c(=O)n(C)c2n1 [Compound C170]						8	6	7	8	4
Cc1cc(C)c(-c2c(O)c3nccnc3n(C)c2=O)c(C)c1 [Compound D7]						10	10	10	10	9
CCn1c(=O)c(-c2c(Cl)cc(OC(F)(F)F)cc2Cl)c(O)c2nccnc21 [Compound D11]						10	10	9	10	10
